This is an account of results in patent US8481459B2, “Chemical inhibitors of ethylene biosynthesis” (Academia Sinica, priority 2010, dated 2013).

Test [1] relates to etiolated eto2-1 seedlings. The test can be described thus: Hypocotyl length of etiolated eto2-1 seedlings. The class given is in vivo, Arabidopsis thaliana. The conditions noted are these: 30 μM. Here is the method:
Seeds of eto1-4 and eto2-1 were germinated in the dark in the absence (−) or presence (+) of different concentrations (10, 20 or 30 μM) of exemplary invention compounds and AVG. The length of hypocotyls and ethylene levels were quantified in 3-day-old etiolated seedlings. Data represent means±SE (n>40), and the experiments were repeated 3 times with similar results.
Therefore, ACC oxidase as the primary target of exemplary the exemplary invention compounds can be excluded. To determine whether the exemplary invention compounds are inhibitors of ACC synthase, the following assays were used. First, the hypocotyl length and ethylene level in the dominant eto2-1 mutant were analyzed, which bears a missense mutation at the 3′ terminus of ACS5 to generate a mutated yet functional protein, ACS5^eto2-1. […] Second, the effect of exemplary invention compounds on the enzymatic activity of recombinant Arabidopsis ACS5 protein by an in vitro ACS activity assay was analyzed (Chae, et al. (2003) Plant Cell 15, 545-559; Savaldi-Goldstein, et al. (2008) Proc Natl Acad Sci USA 105, 15190-15195).

The target of test [2] is T1, recombinant Arabidopsis ACS5 (Arabidopsis thaliana, UniProt Q37001).
T1 construct: The full-length cDNA of Arabidopsis ACS5 (At5g65800) was cloned to pETDuet (Novagen); 6His (N); made in house; host or cells: E. coli BL21-CodonPlus (Stratagene)
T1 sequence (Q37001 1-470): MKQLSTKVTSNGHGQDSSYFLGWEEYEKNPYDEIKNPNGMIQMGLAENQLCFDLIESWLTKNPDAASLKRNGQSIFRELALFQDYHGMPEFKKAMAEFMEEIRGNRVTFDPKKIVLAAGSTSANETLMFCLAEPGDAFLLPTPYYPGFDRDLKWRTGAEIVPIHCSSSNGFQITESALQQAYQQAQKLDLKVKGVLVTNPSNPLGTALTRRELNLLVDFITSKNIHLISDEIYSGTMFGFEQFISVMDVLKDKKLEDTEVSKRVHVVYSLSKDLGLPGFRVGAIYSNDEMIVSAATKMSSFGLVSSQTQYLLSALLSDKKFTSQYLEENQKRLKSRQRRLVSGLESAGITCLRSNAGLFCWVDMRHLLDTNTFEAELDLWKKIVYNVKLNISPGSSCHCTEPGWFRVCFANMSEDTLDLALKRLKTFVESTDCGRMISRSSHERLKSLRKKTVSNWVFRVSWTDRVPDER
The test can be described thus: Enzyme kinetics assay of ACS5 (Lineweaver-Burk). The test is classed as biochemical. Also noted: Vmax of recombinant ACS5 in the presence of inhibitor: unit not given here. How it is done:
For the enzyme kinetics assay, different concentrations of SAM (20, 40, 60, 80, 100, 150, and 200 μM) were used to determine the Km and Vmax of purified recombinant ACS5. In addition, two concentrations, 0.05 and 0.1 μM, of AVG and compound 7303 were tested to determine the inhibition constant Ki. Reactions of enzyme kinetics assay were performed by first incubating chemical inhibitors or DMSO with different concentrations of SAM in 20-mL GC vials, then 1.6 μg purified ACS5 was added to initiate the enzyme reaction for 30 min at 25° C. Gas chromatography was used to quantitate the levels of ethylene chemically converted from ACC as described previously. Data analysis of enzyme kinetics assays and preparation of Lineweaver-Burk plots were done by SIGMAPLOT (Systat Software Inc.).
Because the exemplary invention compounds and AVG have distinct chemical structures (Table 1), they may use different mechanisms to inhibit ACC synthase. To clarify this issue, compound 7303 was selected as a representative of the exemplary invention compounds for enzyme kinetic assay to determine the inhibitory mechanism. […] Data from the enzyme kinetic assay support that the exemplary invention compounds are novel inhibitors of ACC synthase different from AVG and show uncompetitive inhibition in ACS activity.

The Vmax is the rate approached at saturating substrate. The Ki is the equilibrium dissociation constant of an inhibitor or competing ligand from its target.

Regarding `COc1ccc(C2CC(=O)c3cnc(Nc4ccccc4)nc3C2)cc1` (centres unmarked) [Compound 7303], the “suppression in hypocotyl length” value in test [1] came out at 25%. The “Vmax of recombinant ACS5 in the presence of inhibitor” value in test [2] (0.1 μM inhibitor, without inhibitor 95.1±5.0) is listed as 50.5±1.2. Moreover, the “inhibition pattern (mechanism)” value in test [2] (Lineweaver-Burk plot, 0.05 and 0.1 μM) is “uncompetitive inhibitor”. The maximal velocity (Vmax) in test [2] (kinetic parameters of recombinant ACS5 fitted for the inhibitor series, substrate SAM) stood at 92.4 µmol/h/mg. Besides, the Ki in test [2] (recombinant ACS5, inhibitor at 0.05 and 0.1 μM, read-out: calculated inhibition constant (Ki)) was 98.4 ± 6.7 nM.
